In patent publication US20170231931A1, “PRODUCTS FOR THE TREATMENT AND PREVENTION OF NEUROLOGICAL DISORDERS COURSING WITH A COGNITION DEFICIT OR IMPAIRMENT, AND OF NEURODEGENERATIVE DISEASES” (FUNDACIÓN PARA LA INVESTIGACIÓN MÉDICA APLICADA, priority 2014, published 2017):

Assays:
[1] = tested on: acetylated histone 3 at Lys9 (AcH3K9); assay: HDAC activity in wild type neurons: Western blot of acetylated histone 3 (AcH3K9) in primary neuronal cultures; type: cell-based, mice; conditions: 2 h
Procedure: (§1) The cellular assay to determine HDAC activity was assessed by Western blot analysis using a specific antibody against acetylated histone 3 at Lys9 (AcH3K9, Cell Signalling).
Primary neuronal cultures derived from the hippocampus and cortex of embryonic day 16 of wild type mice were used. Tissue was triturated using glass pipettes until neurons were dissociated. Neurons were plated with serum-free neurobasal media with B27 supplement (Invitrogen, Gaithersburg, Md.) and 2 mM L-glutamine on poly-L-lysine-treated (0.1 mg/ml; Sigma) 35 mm dishes.
To determine the concentration-response curve effect of Vorinostat and Tadalafil, cell cultures of 15 days in vitro were treated at different concentrations (10, 100 and 500 nM) during 2 h (Table 5).
Thus, to determine if a synergistic effect on epigenetic mark (AcH3) exists when both compounds are combined, Vorinostat at 50 nM was combined with Tadalafil at different concentrations (12.5, 25, 50, 100 and 200 nM) during 2 h (Table 6).
(§2) Cells were collected in a buffer containing a cold lysis buffer with protease inhibitors (0.2 M NaCl, 0.1 M HEPES (4-(2-hydroxyethyl)-1-piperazineethanesulfonic acid), 10% glycerol, 200 mM NaF, 2 mM Na4P2O7, 5 mM EDTA (ethylenediaminetetraacetic acid), 1 mM EGTA (ethylene glycol tetraacetic acid), 2 mM DTT (dithiothreitol), 0.5 mM PMSF (phenylmethylsulfonyl fluoride), 1 mM Na3VO4 and Complete Protease Inhibitor Cocktail, Roche Diagnostics), centrifuged at 14,000×g 4° C. for 20 min and the supernatant was aliquoted and stored at −80° C. Total protein concentrations were determined using the BioRad Bradford protein assay (BioRad Laboratories).
Protein samples were mixed with Laemmli sample buffer, resolved onto SDS-polyacrylamide gels and transferred to nitrocellulose membrane. The membranes were blocked with 5% milk, 0.05% Tween-20 in PBS (Phosphate-Buffered Saline) or TBS (Tris-Buffered Saline) followed by overnight incubation with the following primary antibodies: rabbit polyclonal anti-acetylated Histone 3 (acetyl K9, Cell Signalling 1:1000), mouse monoclonal anti-actin (Sigma, 1:50000) in the corresponding buffer. Following two washes in TBS/Tween20 and one wash in TBS alone, immunolabeled protein bands were detected by using HRP-conjugated anti-rabbit or anti-mouse antibody (Santa Cruz; dilution 1:5000) following an enhanced chemiluminescence system (ECL, GE Healthcare Bioscience, Buckinghamshire, UK), and autoradiographic exposure to HyperfilmtECL (GE Healthcare Bioscience). Quantity One™ software v.4.6.3 (Bio-Rad) was used for quantification.

Tg2576 mice [2] = assay: Fear Conditioning (FC) test, memory function in aged-Tg2576 mice; type: in vivo; conditions: Tg2576 mice (14-16 month), chronic treatment; Vorinostat 12.5 mg/kg i.p., Tadalafil 1 mg/kg p.o.; mean ± standard deviation
Procedure: (§3) The effect on memory function of Vorinostat (12.5 mg/kg, i.p.), Tadalafil (1 mg/Kg p.o.) and the combination (Vorinostat, 12.5 mg/Kg+Tadalafil 1 mg/Kg) was studied in Tg2576 mice (14-16 month) after a chronic treatment of 2-5 weeks by using two different behavioral tasks: the Fear Conditioning (FC) and the Morris water maze (MWM) tests. Tg2576 mice express the human 695-aa isoform of APP (hAPP) containing the Swedish double mutation, which favours AP production.
The behavioural procedure of FC task involved three phases: habituation, training and testing. During habituation phase, mice were habituated to the conditioning box (context) for 5 min with no stimuli presented. 24 hours later (training phase), mice were placed in the training chamber and allowed to explore for 2 min, afterward, a footshock (0.3 mA) unconditioned stimulus was administered (2 s) and 30 s after mice were returned to their home cage.
Mice were returned to the conditioning chamber 24 h after training and allowed to explore the context for 2 min, during which freezing behavior was recorded (contextual long term memory). Freezing scores were expressed as percentages. The conditioning procedure was carried out in a StartFear system (Panlab S.L., Barcelona, Spain) that allows recording and analysis of the signal generated by the animal movement through a high sensitivity Weight Transducer system. […]

Aβ42 = Aβ42 levels in hippocampal extracts of treated Tg2576 mice (sandwich ELISA); type: in vivo; conditions: Vorinostat 12.5 mg/Kg, Tadalafil 1 mg/Kg, mean ± standard deviation
Procedure: (§4) Amyloid and Tau pathology was analyzed in the hippocampus of treated animals. Hippocampus was weighed and homogenized in 8 mass of ice-cold buffer containing a cold lysis buffer with protease inhibitors (0.2 M NaCl, 0.1 M HEPES (4-(2-hydroxyethyl)-1-piperazineethanesulfonic acid), 10% glycerol, 200 mM NaF, 2 mM Na4P2O7, 5 mM EDTA (ethylenediaminetetraacetic acid), 1 mM EGTA (ethylene glycol tetraacetic acid), 2 mM DTT (dithiothreitol), 0.5 mM PMSF (phenylmethylsulfonyl fluoride), 1 mM Na3VO4 and Complete Protease Inhibitor Cocktail, Roche Diagnostics), centrifuged at 14,000×g 4° C. for 20 min and the supernatant was aliquoted and stored at −80° C. Total protein concentrations were determined using the BioRad Bradford protein assay (BioRad Laboratories).
Aβ42 levels in hippocampal extracts were measured with the 3D6 antibody (specific for amino acids 1-5 of Aβ; kit from Biosource, USA) using a sensitive sandwich ELISA kit from Biosource (Camarillo, Ca, USA) according to the manufacturer's instructions.

Tg2576 mice [3] = assay: Morris water maze (MWM) test, memory retention in aged-Tg2576 mice; type: in vivo; conditions: Retention phase of MWM test, day 9th, Vorinostat 12.5 mg/Kg i.p., Tadalafil 1 mg/Kg p.o., mean ± standard deviation
Procedure: as §3
(§5) The MWM and the revesal_MWM test was used to evaluate spatial memory as previously described (Ricobaraza et al., 2009; Neuropsychopharmacology, 34, 1721-1732 and Ricobaraza et al., 2011, Frontiers in bioscience, 3, 1375-84). After 3 weeks of treatments, groups of animals underwent spatial reference learning and memory testing in the MWM. The water maze was a circular pool (diameter 1.2 m) filled with water maintained at 20° C. and made opaque by the addition of non-toxic white paint. […] In the probe trials the platform was removed from the pool, and the percentage of time spent in the quadrant where the platform was previously set was recorded.
(§6) All trials were monitored by a camera above the center of the pool connected to a SMART-LD program (Panlab S.L., Barcelona, Spain) for subsequent analysis of escape latencies, swimming speed, path length and percent time spent in each quadrant of the pool during probe trials. […]

pTau = pTau in the hippocampus of treated Tg2576 mice (western blot); type: in vivo; conditions: Vorinostat 12.5 mg/Kg, Tadalafil 1 mg/Kg, mean ± standard deviation
Procedure: as §4
pTau was analyzed by western blot in the hippocampus of treated animals. […] Following two washes in TBS/Tween20 and one wash in TBS alone, immunolabelled protein bands were detected using HRP-conjugated anti-rabbit or anti-mouse antibodies (diluted 1:5,000 Santa Cruz). Binding was visualised by enhanced chemiluminescence (ECL, GE Healthcare Bioscience, Buckinghamshire, UK) and autoradiographic exposure to Hyperfilm ECL (GE Healthcare Bioscience), using Quantity One™ software v.4.6.3 (Bio-Rad) for quantification.

Tg2576 mice [4] = assay: Reversal MWM after a 4-weeks wash-out period in aged-Tg2576 mice; type: in vivo; conditions: Retention phase of Reversal_MWM test, day 6th, after 4-weeks wash-out, Vorinostat 12.5 mg/Kg, Tadalafil 1 mg/Kg, mean ± standard deviation
Procedure: as §3
as §5, with “MWM.” for “MWM. The water maze was a circular pool (diameter 1.2 m) filled with water maintained at 20° C. and made opaque by the addition of non-toxic white paint.”
After a 4-weeks wash-out period of the drugs, a reversal phase of MWM was carried out. […] Memory retention was analyzed in a probe at day 6.
as §6

[5] = tested on: acetylated histone 3 at Lys9 (AcH3K9); assay: HDAC activity in SHSY-5Y: Western blot of acetylated histone 3 (AcH3K9); type: cell-based, human; conditions: Vorinostat 10 nM alone, 2 hours, SHSY-5Y cell line
Procedure: as §1
A human neuroblastoma cell line (SHSY-5Y) was also used. Cell line was obtained from ATCC (CRL-2266) (Biedler et al., Cancer Research, 38, 3751-3757 1978) and cultured in 35 mm plates (Becton Dickinson, N.J.). The cells were grown to 90% confluence at 37° C. in an atmosphere of 5% CO2 and in Dulbecco's modified Eagle's medium supplemented with Glutamax (Gibco, Invitrogen, CA), 100 units/ml penicillin/streptomycin, 1× Minimum Essential Media (MEM) non essential amino acids and 10% fetal bovine serum (Gibco, Invitrogen, CA).
as §2, with “Laboratories). […]” for “Laboratories).”

Compound	AcH3 increment vs basal (no treatment) ([1]; compound alone 10 nM)	AcH3 increment vs basal (no treatment) ([1]; compound alone 100 nM)	AcH3 increment vs basal (no treatment) ([1]; compound alone 500 nM)	FC (% freezing) (Tg2576 mice [2])	Aβ42 levels in hippocampus (Aβ42)	MWM (% of time on right quadrant) (Tg2576 mice [3])	pTau/tTau in hippocampus (pTau)	RMWM (% of time on right quadrant) (Tg2576 mice [4])	AcH3 increment vs basal (no treatment) ([1]; Vorinostat 50 nM alone)	AcH3 increment vs basal (no treatment) [5]
CN1CC(=O)N2[C@H](c3ccc4c(c3)OCO4)c3[nH]c4ccccc4c3C[C@@H]2C1=O [Tadalafil, (6R,12aR)-6-(1,3-Benzodioxol-5-yl)-2-methyl-2,3,6,7,12,12a-hexahydropyrazino[1′,2′: 1,6]pyrido[3,4-b]indole-1,4-dione]	+ (basal ×1 means no increment (+))	+ (basal ×1 means no increment (+))	+ (basal ×1 means no increment (+))	41.38 ± 12.3%	14.89 ± 5.17 pg/mg	23.3 ± 7.63%	0.32 ± 0.03	21.26 ± 3.40%	–	–
O=C(CCCCCCC(=O)Nc1ccccc1)NO [Vorinostat, 8-(hydroxyamino)-8-oxo-N-phenyl-octanamide]	+ (basal ×1 means no increment (+))	++ (basal ×2≦(++))	++ (basal ×2≦(++))	51.17 ± 14.8%	12.81 ± 4.68 pg/mg	16.3 ± 4.69%	0.56 ± 0.09	14.88 ± 5.88%	+ (basal ×1 means no increment (+))	+ (basal ×1 means no increment (+))
